Source: PubChem BioAssay (NCI)
Several values for one entry are separate records, joined by “and”; a condition that tells them apart may be missing. Identical values can stand only once.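 1) Cells in 96-well plates. 2) Compound, 48 h, 5 concentrations. 3) Linear interpolation between surrounding doses. 4) Unreached endpoint = highest concentration. GI50 is the concentration that inhibits growth by half. The concentration for full growth arrest is given as TGI.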

Experiments:
Assay in all cases: DTP human tumour cell line panel, 48 h
[1] = tested on: SNB-78 CNS
[2] = tested on: DLD-1 colon
[3] = tested on: LXFL 529 NSCLC
[4] = tested on: MDA-MB-231 breast
[5] = tested on: MDA-N
[6] = tested on: M19-MEL melanoma
[7] = tested on: DMS 114 small cell lung
[8] = tested on: HOP-18 NSCLC
[9] = tested on: RXF-631 renal

Compound	TGI [1] [µM]	TGI [2]	TGI [3] [µM]	GI50 [4] [µM]	TGI [4] [µM]	TGI [6]	TGI [7]	TGI [8] [µM]	also measured
Nn1c(=O)n(Cc2ccccc2)n(-c2ccccc2)c1=O	> 100	> 100 µM	> 100						
Cc1ccc(C(=O)CN(/C=C/C(=O)C(F)(F)F)c2ccc(S(N)(=O)=O)cc2)cc1				> 100	> 100				
Oc1cccnc1CN1CCCCC1					> 100				TGI [5]: > 100 µM
CN1C/C=C\CCOc2cccc(c2)-c2ccnc(n2)Nc2cccc(c2)C1				0.0591	0.859				
COc1cc(/C=C/c2cc(/C=C/c3ccc(O)c(OC)c3)n(C(=O)Nc3ccc(F)c(Cl)c3)n2)ccc1O				0.495	3.85				
COc1cc2c3c(n(CCCNC(=O)OCC4c5ccccc5-c5ccccc54)c(=O)c2cc1OC)-c1cc2c(cc1/C3=C\CCNC(=O)OCC1c3ccccc3-c3ccccc31)OCO2				> 19	> 44				
O=C(Cc1ccccc1)NN1C(=O)C(Cl)C1c1cc(Br)ccc1O (configuration not stated)	91.8	> 100 µM	> 100			23.3 µM	8.77 µM	> 100	
COc1cc(C(C)O)c[n+](CCc2c[nH]c3ccccc23)c1 (configuration not stated)		> 100 µM	> 100			> 100 µM	> 100 µM		TGI [9]: > 100 µM
COc1ccc(Cn2cc3c(c2-c2ccccc2)CC(C)(C)c2cnoc2-3)cc1				3.46	> 100				
CCOC(=O)C1=C(C)N(NC(=O)Nc2ccccc2)C(=O)C1=P(c1ccccc1)(c1ccccc1)c1ccccc1		> 100 µM	> 100			> 100 µM	> 100 µM	> 100	
C[C@@]12CC=C3c4nc(Nc5cccc(O)c5)sc4CC[C@]3(C)[C@H]1CC[C@]1(C)C(=O)CC[C@@H]21				3	15				
CC(=O)CSCc1ccccn1					> 100				TGI [5]: > 100 µM
C1=CC2SSSC2C1 (configuration not stated)		> 100 µM	> 100			> 100 µM	> 100 µM	> 100	
COC(=O)/C(=N\Nc1nnc(C)n1N)C(C#N)c1ccc(Cl)cc1 (configuration not stated)	> 100	> 100 µM	> 100			> 100 µM	> 100 µM	> 100	
COc1cc2ncnc(Nc3ccc(C)c(O)c3)c2cc1OC				17.1	> 25				
CN(C)C(=O)c1cc2cnc(Nc3ccc(-c4csc5c(=S)cc(N6CCOCC6)oc45)cc3)nc2n1C1CCCC1				0.249	> 50				
CCOC(=O)CC1(C(=O)OCC)c2[nH]c3ccccc3c2CCN1Cc1ccccc1 (configuration not stated)	81.2	89.4 µM	> 100			27.6 µM	38.6 µM	54.4	
NCC1Nc2ccccc2[C@@H](O)C1O (some centres not stated)					> 100				TGI [5]: > 100 µM
COC(=O)C1=CNC=C(C(=O)OC)C1C1=CC(=O)C(C)=CC1=O				2.78	19.1				
O=C1CCN2C(=O)CCN12	> 100		> 100			> 100 µM	> 100 µM		
COC1=C(C)C(=O)c2c(c(COC(N)=O)c3n2CC2C3N2C)C1=O (configuration not stated)					0.409				TGI [5]: 0.136 µM
N=C1C(c2nc3ccccc3s2)=C(O)CN1c1cc(C(F)(F)F)ccc1Cl				12.1	95.7				
Cc1ccc(C2=C(c3ccccc3)C(Br)(c3ccc(C)cc3)C(c3ccccc3)=C2c2ccc(C)cc2)cc1	> 100	> 100 µM	> 100			> 100 µM	> 100 µM	> 100	TGI [9]: > 100 µM
COc1cc(C=C2C(=O)NC(=O)NC2=O)cc(OC)c1OC	> 100	> 100 µM	> 100			> 100 µM	> 100 µM	> 100	

Compound	TGI [1] [µM]	TGI [2]	TGI [3] [µM]	GI50 [4] [µM]	TGI [4] [µM]	TGI [6]	TGI [7]	TGI [8] [µM]	also measured
CN1c2ccc(Cl)cc2C(=O)NC1c1ccc([N+](=O)[O-])s1 (configuration not stated)					33.1				TGI [5]: 31.7 µM
COc1ccc(/C=C/c2ccnc3ccccc23)c(OC)c1					> 10				TGI [5]: > 10 µM
Cc1nc(N)sc1C(=O)/C=C\c1ccc2c(c1)OCO2	> 100	> 100 µM	> 100			> 100 µM	> 100 µM	> 100	TGI [9]: > 100 µM
COc1cc(-c2ccc3c(c2)NC(=O)/C3=C\c2ccc[nH]2)ccc1O				0.0409	> 50				
COC(=O)C1=C(C)N(NC(=O)OC(C)(C)C)C(=O)C1=P(c1ccccc1)(c1ccccc1)c1ccccc1	> 100	> 100 µM	> 100			> 100 µM	> 100 µM	> 100	
OC[C@H]1CCCC1O (some centres not stated)					> 100				TGI [5]: > 100 µM
Clc1ccc(C2=Nn3c(COc4ccccc4Cl)nnc3SC2)c(Cl)c1				18.5	48.6				
Cc1cn(C2CC(O)C(CO)O2)c(=O)n2nnnc12 (configuration not stated)	> 100	> 100 µM	> 100			> 100 µM	> 100 µM	> 100	TGI [9]: > 100 µM
Cc1cc(Cl)ccc1N=C1NC(=O)C(CC(=O)Nc2ccc([N+](=O)[O-])cc2[N+](=O)[O-])S1 (configuration not stated)	73.6	> 100 µM	47.5			75.4 µM	49.9 µM		
CCC[CH2][Sn]1([CH2]CCC)[O]CC(CN2CCCC2)[O]1 (configuration not stated)	37.4	32.7 µM	15.3			29.4 µM	27 µM		GI50 [1]: 11.4 µM; GI50 [2]: 16.1 µM; GI50 [6]: 14.6 µM; GI50 [7]: 13 µM; GI50 [3]: 4.33 µM
O=C(O)C1OC(n2cc(F)c(=O)[nH]c2=O)CC1O (configuration not stated)	> 100	> 100 µM	> 100		> 100	> 100 µM	> 100 µM	> 100	TGI [5]: > 100 µM
NCCCCN(CCCN)/[N+]([O-])=N\O	> 100	> 100 µM	> 100			> 100 µM	> 100 µM	> 100	
COc1nc2ccccc2cc1-c1nc2c(cnn2-c2ccc(Br)cc2)c(=O)[nH]1				0.133	> 27.4				
C[C@@H]1CC(=O)C2CCCC1C2=O (some centres not stated)	> 100	> 100 µM	> 100			> 100 µM	> 100 µM	> 100	TGI [9]: > 100 µM
COc1cc2c(cc1OC)C(CC(=O)NN=C(C)C)NCC2 (configuration not stated)	> 100	> 100 µM	> 100			> 100 µM	> 100 µM	> 100	
CC(=O)[O-].CCN(CC)c1ccc(C=NCCN=Cc2ccc(N(CC)CC)cc2[O-])c([O-])c1.[Mn+3]	> 100	> 100 µM	44.1			32.4 µM	35.8 µM	35.5	GI50 [1]: 45.1 µM; GI50 [2]: 55.2 µM; GI50 [6]: 17.7 µM; GI50 [7]: 19.6 µM; GI50 [8]: 18.7 µM; GI50 [3]: 22.5 µM
CN1CCN(CCCOc2ccc3nc(Nc4ccc(Cl)c(C(F)(F)F)c4)ccc3c2)CC1				7.59	23.1				
CC(C)C(Nc1c2ccccc2nc2ccccc12)C(=O)O (configuration not stated)		> 100 µM	> 100			> 100 µM			
COC1=CC(=O)c2nc(-c3cccc(C)n3)[nH]c2C1=O				27.1	66.2				
CCCN1CCC(=O)N(CCC(F)(F)C(F)(F)C(F)(F)C(F)(F)C(F)(F)C(F)(F)F)C1=S					> 100				TGI [5]: > 100 µM
O=C1OC(c2ccccc2)=N/C1=C\c1cccc2ccccc12	> 100	> 100 µM	> 100			> 100 µM	> 100 µM	> 100	
COC(C(O)CO)C(O)C(O)C(=O)NNc1ccccc1 (configuration not stated)					> 100				TGI [5]: > 100 µM
C=C1C(=O)O[C@@H]2/C=C(\C)CC/C=C(/COC(C)=O)C[C@@H](OC(C)=O)[C@@H]12					28.5				TGI [5]: 20.5 µM
Cc1cccc(N2CCN(C(=S)c3ccc4c(c3)OCO4)CC2)c1				0.861	> 100				

Compound	TGI [1] [µM]	TGI [2]	TGI [3] [µM]	GI50 [4] [µM]	TGI [4] [µM]	TGI [6]	TGI [7]	TGI [8] [µM]	also measured
CCCCC(O)(c1ccc(Cl)cc1)C(CN1CCOCC1)c1ccc(Cl)cc1 (configuration not stated)				12.7	27.7				
N#CCN1C(=O)c2cccc3cc([N+](=O)[O-])cc(c23)C1=O	> 100	> 100 µM	> 100			44.5 µM	> 100 µM	> 100	
CN1C(=O)c2cccc3cc([N+](=O)[O-])cc(c23)C1=O					> 10				TGI [5]: > 10 µM
CC(C)(C)c1ccc2c(c1)S(=O)(=O)Nc1ccccc1NS(=O)(=O)c1cc(C(C)(C)C)ccc1OCCOCCOCCO2	> 100	> 100 µM				> 100 µM	> 100 µM	> 100	TGI [9]: > 100 µM
COC(=O)[C@H](C)NC(=O)NC(=O)NC(=O)CI				18.8	37.9				
CC1CC[C@]2(C(=O)O)CCC3(C)C(=CC(=O)C4[C@@]5(C)CCC(=O)C(C)(C)C5CC[C@]43C)[C@@H]2[C@H]1C (some centres not stated)	> 100		> 100			71.3 µM	63.1 µM	94.6	TGI [9]: > 100 µM
C=C1C(=O)O[C@H]2[C@H]1CC/C(COC(=O)C(=O)c1cn(Cc3ccccc3)c3ccccc13)=C\CC[C@@]1(C)O[C@@H]21				2.17	5.01				
Cc1cc(S(=O)(=O)Nc2nnc(-c3ccccc3)c(-c3ccccc3)n2)c(SCC(N)=O)cc1Cl				36.3	> 100				
COc1ccccc1CCc1cc(OC)c(OC)c(OC)c1	> 100	> 100 µM	> 100			> 100 µM	> 100 µM	> 100	
CCOc1ccccc1NC(=O)CC(C(=O)OC)C(=O)C(=O)OC (configuration not stated)	> 100		> 100			> 100 µM	> 100 µM	> 100	TGI [9]: > 100 µM
CC(C)(C)c1cc(Br)c(O)c(CN(Cc2cc(C(C)(C)C)cc(Br)c2O)C2CCCCC2)c1					28.2				TGI [5]: 27.6 µM
COc1cc2nc3cc([N+](=O)[O-])ccc3c(NCCCNCCO)c2cc1OC				0.13	0.374				
Oc1ccccc1C(Sc1nc2ccccc2s1)Sc1nc2ccccc2s1					> 100				TGI [5]: > 100 µM
O=C(NC1=CC(=O)c2ccccc2C1=O)c1ccccc1				0.421	1.76				
COC1(OC)C2(Cl)C(Cl)=C(Cl)C1(Cl)C1C=CC=CC12 (configuration not stated)	> 100	> 100 µM	> 100			> 100 µM	> 100 µM		TGI [9]: 39.9 µM
COc1cccc2c1C(=O)c1c(O)c3c(c(O)c1C2=O)C[C@@](O)(C(C)=O)C[C@@H]3OC1OC(C)C(O)C(N)C1Br (some centres not stated)	3.09	0.175 µM and 0.607 µM	1.12		1.72	0.364 µM and 0.328 µM	0.428 µM and 0.212 µM	0.345	TGI [5]: 0.63 µM; GI50 [2]: 0.0679 µM; GI50 [7]: 0.0233 µM
COc1ccc(C(=O)C(C(=O)CCC(=O)Nc2cccc(Cl)c2)c2ccc(OC)cc2)cc1 (configuration not stated)		> 100 µM	> 100			> 100 µM		> 100	TGI [9]: > 100 µM
COC(=O)[C@@H](C)CNS(=O)(=O)N(c1cc(C(F)(F)F)cc(C(F)(F)F)c1)C1CCN(Cc2ccc(F)cc2)CC1				12.7	29.3				
CC1(C)C(=O)N(CCCCCCN2C(=O)C(C)(C)c3ccccc32)c2ccccc21	> 100		> 100			65.2 µM	43.4 µM	> 100	
CCOC(=O)c1c(C)n(Cc2ccc(Cl)cc2Cl)c2c1c(CN(C)C)c(O)c1[nH]cnc12				16.3	31.9				
NS(=O)(=O)c1ccc(NC2(C(=O)O)CCCC2)cc1					> 100				TGI [5]: > 100 µM
O=C(N/N=C/c1ccc(Cl)cc1)c1ccc(C(F)(F)F)nc1Nc1cccc(C(F)(F)F)c1				2.22	8.83				
c1cc(CNC23CC4CC(CC(C4)C2)C3)cc(C[N+](Cc2cccc(CNC34CC5CC(CC(C5)C3)C4)c2)(Cc2cccc(CNC34CC5CC(CC(C5)C3)C4)c2)Cc2cccc(CNC34CC5CC(CC(C5)C3)C4)c2)c1 (configuration not stated)				8.73	31				
Cc1ccn2c(c1)nc1nc3ccccc3nc12	> 100	> 100 µM	> 100			> 100 µM	> 100 µM		
